Reference: PubChem BioAssay AID248 (DTP/NCI, 2004)
Values joined by “and” are separate entries in the source; they are usually repeats but may differ in a detail not shown here. Identical values can stand only once. Toxic doses and inconclusive results are not listed. Cut-off read from the data, not from the text of the source: active = T/C of 150% or more; inactive = T/C below 125%.

System: L1210 leukemia ip in BDF1 mice, survival T/C
Assay: NCI In Vivo Anticancer Drug Screen. Data for tumor model L1210 Leukemia (intraperitoneal) in B6D2F1 (BDF1) mice
Conditions: endpoint: mean survival time, higher = longer survival
Procedure, shortened: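 Transplanted-tumor mice were given test agent; controls received vehicle only. Survival readings from the two groups were divided (treated over control).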

[1] = dose: 100.0 mg/kg/injection, schedule: Q01DX009 (ip), vehicle: Klucel (hydroxypropylcellulose) (HPC)
[2] = dose: 200.0 mg/kg/injection, schedule: Q01DX009 (ip), vehicle: Klucel (hydroxypropylcellulose) (HPC)
[3] = dose: 400.0 mg/kg/injection, schedule: Q01DX009 (ip), vehicle: Klucel (hydroxypropylcellulose) (HPC)
[4] = dose: 100.0 mg/kg/injection, schedule: Q04DX003 (ip), vehicle: saline with Tween-80
[5] = dose: 200.0 mg/kg/injection, schedule: Q04DX003 (ip), vehicle: saline with Tween-80
[6] = dose: 400.0 mg/kg/injection, schedule: Q04DX003 (ip), vehicle: saline with Tween-80
[7] = dose: 100.0 mg/kg/injection, schedule: Q04DX002 (ip), vehicle: saline with Tween-80
[8] = dose: 200.0 mg/kg/injection, schedule: Q04DX002 (ip), vehicle: saline with Tween-80
[9] = dose: 400.0 mg/kg/injection, schedule: Q04DX002 (ip), vehicle: saline with Tween-80
[10] = dose: 100.0 mg/kg/injection, schedule: Q01DX001 (ip), vehicle: saline
[11] = dose: 100.0 mg/kg/injection, schedule: Q04DX003 (ip), vehicle: saline
[12] = dose: 200.0 mg/kg/injection, schedule: Q01DX001 (ip), vehicle: saline
[13] = dose: 200.0 mg/kg/injection, schedule: Q04DX003 (ip), vehicle: saline
[14] = dose: 100.0 mg/kg/injection, schedule: Q01DX009 (ip), vehicle: saline with Tween-80
[15] = dose: 200.0 mg/kg/injection, schedule: Q01DX009 (ip), vehicle: saline with Tween-80

Measured: T/C

CCCCCCCCCCCCCCCCN(C(C)c1ccccc1)S(=O)(=O)c1ccc(OC)c(N)c1 (stereo not drawn)
inactive: dose: 100.0 mg/kg/injection, schedule: Q01DX001 (ip), vehicle: Klucel (hydroxypropylcellulose) (HPC) 93 % of control | [1] 94 % of control | dose: 100.0 mg/kg/injection, schedule: Q04DX003 (ip), vehicle: Klucel (hydroxypropylcellulose) (HPC) 98 % of control | dose: 200.0 mg/kg/injection, schedule: Q01DX001 (ip), vehicle: Klucel (hydroxypropylcellulose) (HPC) 88 % of control | [2] 94 % of control | dose: 200.0 mg/kg/injection, schedule: Q04DX003 (ip), vehicle: Klucel (hydroxypropylcellulose) (HPC) 98 % of control | dose: 400.0 mg/kg/injection, schedule: Q01DX001 (ip), vehicle: Klucel (hydroxypropylcellulose) (HPC) 88 % of control | [3] 95 % of control | dose: 400.0 mg/kg/injection, schedule: Q04DX003 (ip), vehicle: Klucel (hydroxypropylcellulose) (HPC) 98 % of control

N#CCc1cnc2ccccc2n1
inactive: dose: 6.25 mg/kg/injection, schedule: Q01DX009 (ip), vehicle: saline with Tween-80 96 % of control | dose: 12.5 mg/kg/injection, schedule: Q01DX009 (ip), vehicle: saline with Tween-80 98 % of control | dose: 12.5 mg/kg/injection, schedule: Q04DX003 (ip), vehicle: saline with Tween-80 94 % of control | dose: 25.0 mg/kg/injection, schedule: Q01DX009 (ip), vehicle: saline with Tween-80 101 % of control | dose: 25.0 mg/kg/injection, schedule: Q04DX003 (ip), vehicle: saline with Tween-80 96 % of control

CN1C(=O)CCN(CCN2CCC(=O)N(C)C2=S)C1=S
inactive: dose: 100.0 mg/kg/injection, schedule: Q04DX002 (ip), vehicle: Klucel (hydroxypropylcellulose) (HPC) 114 % of control | dose: 200.0 mg/kg/injection, schedule: Q04DX002 (ip), vehicle: Klucel (hydroxypropylcellulose) (HPC) 103 % of control | dose: 400.0 mg/kg/injection, schedule: Q04DX002 (ip), vehicle: Klucel (hydroxypropylcellulose) (HPC) 96 % of control

CCCCn1c(=O)cc(C(=O)O)c2ccccc21
inactive: [4] 101 % of control | [5] 101 % of control | [6] 95 % of control

Nc1ncnc(Nc2ccc([N+](=O)[O-])cc2)c1[N+](=O)[O-]
inactive: [1] 97 % of control | [2] 92 % of control | [3] 96 % of control

N#C/C(=C\C=C\C1CCCCC1)C1CCC([N+](=O)[O-])CC1 (stereo not drawn)
inactive: [7] 105 % of control | [8] 94 % of control | [9] 91 % of control

C=C1C(=O)N(C)CCC1C(CC)C(=O)OC (stereo not drawn)
inactive: dose: 25.0 mg/kg/injection, schedule: Q01DX001 (ip), vehicle: saline 101 % of control | dose: 25.0 mg/kg/injection, schedule: Q04DX003 (ip), vehicle: saline 95 % of control | dose: 25.0 mg/kg/injection, schedule: Q04DX003 (oral), vehicle: saline 107 % of control | dose: 50.0 mg/kg/injection, schedule: Q01DX001 (ip), vehicle: saline 88 % of control | dose: 50.0 mg/kg/injection, schedule: Q04DX003 (ip), vehicle: saline 93 % of control | dose: 50.0 mg/kg/injection, schedule: Q04DX003 (oral), vehicle: saline 109 % of control | [10] 98 % of control | [11] 93 % of control | dose: 100.0 mg/kg/injection, schedule: Q04DX003 (oral), vehicle: saline 98 % of control | [12] 93 % of control | [13] 95 % of control | dose: 200.0 mg/kg/injection, schedule: Q04DX003 (oral), vehicle: saline 94 % of control

CN1C2CCCCC1C1CCCCC2N1C
inactive: dose: 75.0 mg/kg/injection, schedule: Q01DX001 (ip), vehicle: saline 105 % of control | dose: 150.0 mg/kg/injection, schedule: Q01DX001 (ip), vehicle: saline 94 % of control | dose: 300.0 mg/kg/injection, schedule: Q01DX001 (ip), vehicle: saline 98 % of control

O=[N+]([O-])c1cc(Cl)c(Cl)cc1NCCCO
inactive: [10] 95 % of control | dose: 100.0 mg/kg/injection, schedule: Q01DX009 (ip), vehicle: acetone 95 % of control | [11] 91 % of control | [12] 96 % of control | dose: 200.0 mg/kg/injection, schedule: Q01DX009 (ip), vehicle: acetone 97 % of control | [13] 96 % of control | dose: 400.0 mg/kg/injection, schedule: Q01DX001 (ip), vehicle: saline 92 % of control | dose: 400.0 mg/kg/injection, schedule: Q04DX003 (ip), vehicle: saline 89 % of control

CN(C)CCc1ccccc1
inactive: dose: 25.6 mg/kg/injection, schedule: Q04DX002 (ip), vehicle: saline with Tween-80 100 % of control | dose: 64.0 mg/kg/injection, schedule: Q04DX002 (ip), vehicle: saline with Tween-80 103 % of control | [14] 100 % of control | [4] 102 % of control | dose: 160.0 mg/kg/injection, schedule: Q04DX002 (ip), vehicle: saline with Tween-80 103 % of control | [15] 95 % of control | [5] 102 % of control | [9] 100 % of control | [6] 100 % of control

CCOC(=O)COc1ccc(Cl)cc1C(=O)OCC
inactive: dose: 100.0 mg/kg/injection, schedule: Q04DX002 (sc), vehicle: olive oil, sesame oil, peanut oil 105 % of control | dose: 200.0 mg/kg/injection, schedule: Q04DX002 (sc), vehicle: olive oil, sesame oil, peanut oil 118 % of control | dose: 400.0 mg/kg/injection, schedule: Q04DX002 (sc), vehicle: olive oil, sesame oil, peanut oil 111 % of control

CSc1ccc(NC(=O)OCCOc2ccccc2)cc1
inactive: dose: 100.0 mg/kg/injection, schedule: Q01DX001 (ip), vehicle: saline with Tween-80 94 % of control | [14] 96 % of control and 89 % of control | [7] 99 % of control | [4] 100 % of control | dose: 200.0 mg/kg/injection, schedule: Q01DX001 (ip), vehicle: saline with Tween-80 94 % of control | [15] 97 % of control and 89 % of control | [8] 108 % of control | [5] 102 % of control | dose: 400.0 mg/kg/injection, schedule: Q01DX001 (ip), vehicle: saline with Tween-80 110 % of control | dose: 400.0 mg/kg/injection, schedule: Q01DX009 (ip), vehicle: saline with Tween-80 94 % of control and 107 % of control | [9] 89 % of control | [6] 102 % of control
